Laboratory results taken from US8158820B2, “Compounds” (AstraZeneca AB, priority 2003, dated 2012).

Target: T1, CRTh2 (Homo sapiens, UniProt Q9Y5Y4)
T1 construct: expressed in transfected cells; host or cells: HEK cells (stably transfected, geneticin selection; membranes prepared)
T1 sequence (Q9Y5Y4 1-395): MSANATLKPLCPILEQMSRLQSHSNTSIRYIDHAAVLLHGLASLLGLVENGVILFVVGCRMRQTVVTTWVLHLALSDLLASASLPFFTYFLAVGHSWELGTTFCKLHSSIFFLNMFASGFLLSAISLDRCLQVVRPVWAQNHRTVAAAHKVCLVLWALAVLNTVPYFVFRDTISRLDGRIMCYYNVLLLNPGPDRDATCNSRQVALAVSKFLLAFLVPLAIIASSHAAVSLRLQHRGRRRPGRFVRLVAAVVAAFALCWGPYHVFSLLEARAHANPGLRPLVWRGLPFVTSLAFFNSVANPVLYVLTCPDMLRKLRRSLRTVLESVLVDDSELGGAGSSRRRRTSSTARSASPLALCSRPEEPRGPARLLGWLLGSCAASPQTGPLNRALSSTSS
Assay: Ligand Binding Assay ([3H]PGD2, SPA beads, HEK cell membranes)
Conditions: [3H]PGD2 binding to membranes of HEK cells expressing rhCRTh2/Gα16
Description: [^3H]PGD2 was purchased from Perkin Elmer Life Sciences with a specific activity of 100-210 Ci/mmol. All other chemicals were of analytical grade.
HEK cells expressing rhCRTh2/Gα16 were routinely maintained in DMEM containing 10% Foetal Bovine Serum (HyClone), 1 mg/ml geneticin, 2 mM L-glutamine and 1% non-essential amino acids. For the preparation of membranes, the adherent transfected HEKcells were grown to confluence in two layer tissue culture factories (Fisher, catalogue number TKT-170-070E). Maximal levels of receptor expression were induced by addition of […] sodium butyrate for the last 18 hours of culture. The adherent cells were washed once with phosphate buffered saline (PBS, 50 ml per cell factory) and detached by the addition of 50 ml per cell factory of ice-cold membrane homogenisation buffer [20 mM HEPES (pH 7.4), 0.1 mM dithiothreitol, 1 mM EDTA, 0.1 mM phenyl methyl sulphonyl fluoride and 100 μg/ml bacitracin]. […] The final pellet was re-suspended in 4 ml of membrane homogenisation buffer per cell factory used and the protein content determined. […]
All assays were performed in Corning clear bottomed, white 96-well NBS plates (Fisher). […] (The optimum coating concentrations were determined for each batch of membranes) The beads were pelleted by centrifugation (800×g for 7 minutes at 4° C.), washed once with assay buffer (50 mM HEPES pH 7.4 containing 5 mM magnesium chloride) and finally re-suspended in assay buffer at a bead concentration of 10 mg/ml.
Each assay contained 20 μl of 6.25 nM [^3H]PGD2, 20 μl membrane saturated SPA beads both in assay buffer and 10 μl of compound solution or 13,14-dihydro-15-keto prostaglandin D2 (DK-PGD2, for determination of non-specific binding, Cayman chemical company). […] The assay plate was incubated at room temperature for 2 hours and counted on a Wallac Microbeta liquid scintillation counter (1 minute per well).

SMILES | IC50 [nM]
CS(=O)(=O)c1ccc(-c2cc(Cl)ccc2OCC(=O)O)cc1 [Example 9, {[5-Chloro-4′-(methylsulfonyl)biphenyl-2-yl]oxy}acetic acid] | 39.8
CN(c1ncc(-c2cc(Cl)ccc2OCC(=O)O)cn1)S(C)(=O)=O [Example 25, (4-Chloro-2-{2-[methyl(methylsulfonyl)amino]pyrimidin-5-yl}phenoxy)acetic acid] | 10
CNS(=O)(=O)c1ccc(-c2cc(C(F)(F)F)ccc2OCC(=O)O)cc1 [Example 133, [[4′-[(Methylamino)sulfonyl]-5-(trifluoromethyl)[1,1′-biphenyl]-2-yl]oxy]-acetic acid] | 6.31
